Test results taken from patent publication US20040115813A1, “Real time measurement of cellular responses” (priority 2002, published 2004).

Key:
Assay type in all cases: cell-based, human
[1] = test system: PC-3 dual cells; assay: Real-time visualization of drug-induced apoptosis and nuclear morphology in dual-labeled cells
Excerpt: The dual-color cells could be easily placed in their cell cycle position by the “nuclear-cytoplasmic” ratio as observed in living cells. For fluorescence microscopy of these cells, a Leica fluorescence stereo microscope model LZ12 equipped with a mercury 50W lamp power supply was used. To visualize both GFP and RFP fluorescence at the same time, excitation was produced through a D425/60 band pass filter, 470 DCXR dichroic mirror, and emitted fluorescence was collected through a long pass filter GG475 (Chroma Technology, Brattleboro, Vt.).
(§1) PC-3 dual cells were treated with Taxol™ (0.8 ug/ml); thymidine (2 mM), and vinblastine (60 nM). Real-time imaging was done at 0, 12, 24, 36, and 48 hours. Cells were collected for DNA extraction and agarose gel electrophoresis (1.8%) analysis. […] The nuclear ring structures were […] by 24 hours.

[2] = test system: PC-3 dual cells; assay: DNA extraction and agarose gel electrophoresis (1.8%) for DNA fragmentation; details: Taxol 0.8 μg/ml
Description: as §1

[3] = test system: HT-1080-dual-6 cells; assay: Real time observation of apoptotic process in vitro by fluorescence microscopy; details: 2 μM staurosporine; for apoptosis induction: imaged every 2 hours up to 12 hours; for nuclear/cytoplasmic morphology during apoptosis: images at 2-12 hours
Description: HT-1080-dual-6 cells were incubated with 2 μM staurosporine for apoptosis induction. The cells were visualized under blue light and images were captured with a CCD camera and fluorescence microscope. […] Bar, 50 μm. […] Bar, 10 μm.
To capture the images of real time apoptotic processes, the HT-1080-dual-6 clone was used. Staurosporine (Alexis, San Diego, Calif.), dissolved in DMSO and stored at −80 degrees, was used for induction of apoptosis. 3×10^5 cells were seeded in a 25 cm^2 flask with RPMI 1640 with 10% FBS. Staurosporine was added the next day at a concentration of 2 μM. Every 2 hours, the flask was set under the fluorescent stereo microscope and real time images were captured at each time point.

CC[C@]1(O)C[C@@H]2CN(CCc3c([nH]c4ccccc34)[C@@](C(=O)OC)(c3cc4c(cc3OC)N(C)[C@H]3[C@@](O)(C(=O)OC)[C@H](OC(C)=O)[C@]5(CC)C=CCN6CC[C@]43[C@@H]65)C2)C1 [vinblastine]
effect on cell nuclei and cytoplasm (morphology) ([1]; vinblastine 60 nM): nuclei became more condensed and the cytoplasm appeared to expand

CC(=O)O[C@H]1C(=O)[C@@]2(C)[C@H]([C@H](OC(=O)c3ccccc3)[C@]3(O)C[C@H](OC(=O)[C@H](O)[C@@H](NC(=O)c4ccccc4)c4ccccc4)C(C)=C1C3(C)C)[C@]1(OC(C)=O)CO[C@@H]1C[C@@H]2O [Taxol™, Paclitaxel]
DNA fragmentation by gel electrophoresis ([2]; 24 hours): before DNA fragmentation occurred | DNA fragmentation by gel electrophoresis ([2]; 48 hours): DNA fragmentation could be observed | effect on nuclei (morphology) ([1]; Taxol 0.8 μg/ml, by 24 hours): form a ring-shaped structure | apoptosis (aberrant nuclear structures and fragmentation) ([1]; Taxol 0.8 μg/ml, by 48 hours): entering apoptosis with very aberrant nuclear structures and fragmentation

CN[C@@H]1C[C@H]2O[C@@](C)([C@@H]1OC)n1c3ccccc3c3c4c(c5c6ccccc6n2c5c31)C(=O)NC4 [Staurosporine]
apoptosis induction [3]: induced apoptosis | apoptosis induction ([3]; listed as staurosporine): Apoptosis was well induced | nuclear/cytoplasmic morphology during apoptosis [3]: Progressive fragmentation of nucleus | nuclear/cytoplasmic morphology during apoptosis ([3]; listed as staurosporine): condensation of cytoplasm and nucleus and fragmentation of nucleus
